{
  "source": "patent US12630493B2",
  "about": "“Anti-inflammatory compounds” (priority 2018, dated 2026)",
  "key": {"[1]": {"test_system": "TNF-[…]", "experiment": "kavain analog screening assay, TNF inhibition in BMM infected with P. gingivalis", "type": "cell-based, murine", "method": "(§1) To identify compounds with strong anti-inflammatory properties, kavain analogs were tested in a screening assay based on TNF-[…] inhibition in BMM infected with P. gingivalis (FIG. 1B). This screen identified Kava-205Cl (5,5-dimethyl-3-oxocyclohex-1-en-1-yl 4-chlorobenzoate) and its methylated analog Kava-205Me (5,5-dimethyl-3-oxocyclohex-1-en-1-yl 4-methylbenzoate) (FIG. 1B) as effective inhibitors of TNF-[…] secretion (z=−0.99 and z=−1.07 respectively)."}, "[2]": {"test_system": "infective arthritis (collagen-antibody + P. gingivalis)", "experiment": "infective arthritis murine model, P. gingivalis and AB peritoneal injection (Kava-205Me)", "type": "in vivo, mice", "method": "(§2) See Amar, Salomon et al., Identification of a Kavain Analog with Efficient Anti-inflammatory Effects, [Currently unpublished], 2019. (Incorporated by reference in its entirety, herein). Specifically, in an in vitro assay of anti-inflammatory effects, murine macrophages (BMM) and THP-1 cells were infected with P. gingivalis (MOI=20:1) and a panel of cytokines were measured.\nTo evaluate the systemic effect of Kava-205Me, an infective arthritis was induced in mice by the combined insults of P. gingivalis and AB peritoneal injection. After 10 days, significant paw swelling was observed, confirming the establishment of joint inflammation and a destructive process (FIG. 5). […] This anti-inflammatory effect was confirmed histologically (FIG. 5C)."}, "[3]": {"test_system": "IL-12, IFN-γ, MIP-1β, RANTES, IL-10, G-CSF and eotaxin", "experiment": "multiplex analysis of chemokines and cytokines from BMM exposed to P. gingivalis", "type": "cell-based, murine", "method": "as §2\n(§3) P. gingivalis is able to induce sustained recruitment of immune cells such a neutrophils and T-lymphocytes, whose presence is associated with excessive inflammation and tissue destruction at infectious sites. To evaluate the effect of Kava-205Me on the secretion of chemokines and cytokines from BMM exposed to P. gingivalis, a multiplex analysis was performed that compared P. gingivalis infected cells with and without treatment with Kava-205Me. […] Moreover, the gene expression of ACP5, an osteoclast specific gene, was evaluated in BMM infected with P. gingivalis with or without Kava-205Me treatment."}, "[4]": {"test_system": "P. gingivalis-induced calvarial destruction", "experiment": "acute model of P. gingivalis-induced calvarial destruction", "type": "in vivo", "method": "as §2\nIn an acute model of P. gingivalis infection, Kava-205Me was administered to evaluate its anti-inflammatory and pro-healing properties in vivo. In this calvarial model, injection of P. gingivalis induced formation of a cutaneous abscess characterized by dermal inflammation and bone destruction (FIG. 4)."}, "[5]": {"test_system": "ACP5", "experiment": "ACP5 gene expression in BMM infected with P. gingivalis", "type": "cell-based, murine", "method": "as §3"}, "[6]": {"test_system": "TNF-α", "experiment": "TNF-α secretion, dose-response in BMM infected with P. gingivalis", "type": "cell-based, murine", "method": "as §2, §1"}, "[7]": {"test_system": "TNF-α", "experiment": "TNF-α secretion, dose-response in THP-1 infected with P. gingivalis", "type": "cell-based, human", "method": "as §2, §1"}, "[8]": {"test_system": "P. gingivalis+ type II collagen antibody induced periodontitis", "experiment": "collagen antibody primed oral gavage model of periodontitis", "type": "in vivo, mice", "method": "The effect of Kava-241 on periodontal destruction in a collagen antibody primed oral gavage model of periodontitis was evaluated. In this example, experimental periodontitis was induced by oral gavage of P. gingivalis+ type II collagen antibody (AB) in mice during 15 days. Mice were treated with Kava-241 concomitantly or prior to P. gingivalis gavage and compared to untreated mice. Comprehensive histomorphometric analyses were performed. […] The Kava-241 effect was associated with a reduction in inflammatory cell counts within soft tissues and an increase in fibroblasts."}, "[9]": {"test_system": "infective arthritis (P. gingivalis + ArthritoMab antibody cocktail)", "experiment": "infective arthritis murine model triggered by P. gingivalis and primed with collagen antibody cocktail (Kava-241)", "type": "in vivo, DBA1/BO male mice", "conditions": "CIA cocktail, treated concomitantly", "source_text": "Kava-241 (I-BC-241) is a compound derived from kavain and has been synthesized as described previously. In this example, we evaluated the systemic and articular effects Kava-241 in an infective arthritis murine model triggered by P. gingivalis bacterial inoculation and primed with collagen antibody cocktail (CIA) to induce joint inflammation and tissular destruction. Arthritis was induced in twenty-eight six-week-old, pathogen-free DBA1/BO male mice by two consecutive injections of ArthritoMab (AB) Antibody cocktail (CIA-MAB-2C, MD Bioproducts, Oakdale, MN, USA), the first injection of 7 mg at baseline, followed by a second injection of 4 mg at day 5. For P. gingivalis injected groups, 3 intraperitoneal injections of 5.10^8 bacteria/100 μl were performed at days 2, 8 and 11. Mice were sacrificed after 17 days. Clinical inflammation score and radiological analysis of the paws were performed continuously while histological assessment was obtained at sacrifice. Forepaws were evaluated to score arthritis using a visual qualitative assessment scoring as follows: 0) no paw swelling, 1) mild swelling, 2) moderate swelling, 3) severe swelling (22). Inflammation was also evaluated with X-rays examination."}, "[10]": {"test_system": "P. gingivalis+ type II collagen antibody induced periodontitis", "conditions": "P. gingivalis induced PD in a collagen antibody primed mouse model; cited from earlier work"}, "[11]": {"test_system": "TNF-α", "conditions": "Escherichia coli LPS-stimulated RAW cells; cited from earlier work"}, "[12]": {"test_system": "TNF-α", "experiment": "serum TNF-α in mice injected with P. gingivalis-lipopolysaccharide", "type": "in vivo", "conditions": "mice injected with TLR 2/4 ligand P. gingivalis-LPS"}, "[13]": {"test_system": "TLR-2/4, MAPKs related signal elements, LITAF", "experiment": "signalling in bone-marrow derived macrophages infected with P. gingivalis", "type": "cell-based, murine", "conditions": "BMM infected with P. gingivalis"}, "[14]": {"conditions": "collagen-antibody (ArthriomAb)+P. gingivalis"}, "[15]": {"conditions": "P. gingivalis+ AG group, p<0.05"}},
  "note": "Entries after “also recorded” stand apart in the source; their conditions may differ.",
  "data": [
    {"smiles": "CC1(C)CC(=O)C=C(OC(=O)c2ccc(Cl)cc2)C1", "note": "[Kava-205Cl, 5,5-dimethyl-3-oxocyclohex-1-en-1-yl 4-chlorobenzoate]", "values": [
      {"measurement": "TNF-[…] secretion, z", "setting": "[1]", "result": "−0.99"}
    ]},
    {"smiles": "Cc1ccc(C(=O)OC2=CC(=O)CC(C)(C)C2)cc1", "note": "[Kava-205Me, 5,5-dimethyl-3-oxocyclohex-1-en-1-yl 4-methylbenzoate]", "values": [
      {"measurement": "number of TRAP positive multinucleated cells in contact with bone (osteoclastic activity of the infiltrate)", "setting": "[2]; P. gingivalis-exposed animals", "result": "reduction"},
      {"measurement": "inflammatory infiltrate in paw tissue sections", "setting": "[2]; animals exposed to P. gingivalis, histology", "result": "significant reduction"},
      {"measurement": "joint destruction", "setting": "[2]; [14]", "result": "reduce efficiently"},
      {"measurement": "paw swelling", "setting": "[2]; [14]", "result": "reduce efficiently"},
      {"measurement": "P. gingivalis-induced paw swelling", "setting": "[2]; systemic administration, 32 day time point", "result": "significantly decreased"},
      {"measurement": "concentrations of chemokines and cytokines (IL-12, IFN-γ, MIP-1β, RANTES, IL-10, G-CSF and eotaxin)", "setting": "[3]; BMM exposed to P. gingivalis, multiplex analysis", "result": "significantly reduced"},
      {"measurement": "secretion of IL-12, eotaxin, RANTES, IL-10 and interferon-γ", "setting": "[3]; BMM infected with P. gingivalis, p<0.05", "result": "reduced"},
      {"measurement": "osteoclastic activity", "setting": "[4]", "result": "reduced; also recorded: trend of reduction"},
      {"measurement": "rate of healing", "setting": "[4]; P. gingivalis injection", "result": "significantly improved; also recorded: significantly increased"},
      {"measurement": "soft tissue inflammation", "setting": "[4]; histological level", "result": "reduced significantly"},
      {"measurement": "ACP5 gene expression", "setting": "[5]", "result": "reduced"},
      {"measurement": "TNF-[…] secretion, z", "setting": "[1]", "result": "−1.07"},
      {"measurement": "TNF-[…] secretion", "setting": "[6]; BMM infected with P. gingivalis, lowest tested dose 10 µg/ml", "result": "reduced significantly"},
      {"measurement": "TNF-α secretion induced by P. gingivalis", "setting": "[6]; BMM, MOI=20:1, 10 to 200 μg/ml", "result": "significantly and dose-dependently reduced"},
      {"measurement": "TNF-α secretion induced by P. gingivalis", "setting": "[7]; THP-1 cells, MOI=20:1, 10 to 200 μg/ml", "result": "significantly and dose-dependently reduced"},
      {"measurement": "TNF-[…] secretion", "setting": "[7]; THP-1 infected with P. gingivalis, lowest tested dose 10 µg/ml", "result": "reduced significantly"}
    ]},
    {"smiles": "CC1(C)CC(=O)C=C(OC(=O)c2ccccc2)C1", "note": "[Kava-241, 5,5-dimethyl-3-oxocyclohex-1-en-1-yl benzoate]", "values": [
      {"measurement": "reduced alveolar bone loss", "setting": "[8]; [15]", "result": 36, "unit": "%"},
      {"measurement": "reduced epithelial down-growth", "setting": "[8]; [15]", "result": 72, "unit": "%"},
      {"measurement": "inflammatory cell counts within soft tissues", "setting": "[8]; periodontitis model", "result": "reduction"},
      {"measurement": "fibroblasts", "setting": "[8]; periodontitis model, soft tissues", "result": "increase"},
      {"measurement": "clinical inflammatory score", "setting": "[9]", "result": "reduced"},
      {"measurement": "number of inflammatory cells within joint", "setting": "[9]", "result": "decreased"},
      {"measurement": "number of osteoclasts within joint", "setting": "[9]", "result": "decreased"},
      {"measurement": "inflammation including alveolar bone loss", "setting": "[10]", "result": "prevented"},
      {"measurement": "TNF-α secretion", "setting": "[11]", "result": "reduced"},
      {"measurement": "TNF-α in serum", "setting": "[12]", "result": "decreased significantly"},
      {"measurement": "LITAF", "setting": "[13]", "result": "reduced"},
      {"measurement": "MAPKs related signal elements", "setting": "[13]", "result": "reduced"},
      {"measurement": "TLR-2/4", "setting": "[13]", "result": "reduced"}
    ]}
  ]
}
